“And” between values parts separate entries of the source, which are not always exact repeats. Identical values can stand only once. Toxic doses and inconclusive results are not listed. The calls were made as follows: active = survival T/C of 150% or more; inactive = T/C below 125% in these data.
Test system: CD2F1 mice, L1210 leukemia ip, survival T/C
Experiment: NCI In Vivo Anticancer Drug Screen. Data for tumor model L1210 Leukemia (intraperitoneal) in CD2F1 (CDF1) mice
Conditions: endpoint: mean survival time, higher = longer survival
In short: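 Mice carrying a transplanted tumor received test compound or vehicle alone. The value is the measurement in the treated group divided by that in the vehicle-treated control group.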

[1] = dose: 100.0 mg/kg/injection, schedule: Q04DX003 (ip), vehicle: saline with Tween-80
[2] = dose: 200.0 mg/kg/injection, schedule: Q04DX003 (ip), vehicle: saline with Tween-80
[3] = dose: 400.0 mg/kg/injection, schedule: Q04DX003 (ip), vehicle: saline with Tween-80
[4] = dose: 100.0 mg/kg/injection, schedule: Q01DX009 (ip), vehicle: saline with Tween-80
[5] = dose: 12.5 mg/kg/injection, schedule: Q04DX003 (ip), vehicle: saline with Tween-80
[6] = dose: 25.0 mg/kg/injection, schedule: Q04DX003 (ip), vehicle: saline with Tween-80
[7] = dose: 50.0 mg/kg/injection, schedule: Q04DX003 (ip), vehicle: saline with Tween-80
[8] = dose: 100.0 mg/kg/injection, schedule: Q01DX001 (ip), vehicle: saline
[9] = dose: 100.0 mg/kg/injection, schedule: Q04DX002 (ip), vehicle: saline
[10] = dose: 100.0 mg/kg/injection, schedule: Q04DX003 (ip), vehicle: saline
[11] = dose: 200.0 mg/kg/injection, schedule: Q04DX002 (ip), vehicle: saline
[12] = dose: 400.0 mg/kg/injection, schedule: Q04DX002 (ip), vehicle: saline
[13] = dose: 200.0 mg/kg/injection, schedule: Q01DX001 (ip), vehicle: saline
[14] = dose: 400.0 mg/kg/injection, schedule: Q01DX001 (ip), vehicle: saline
[15] = dose: 100.0 mg/kg/injection, schedule: Q01DX009 (ip), vehicle: Klucel (hydroxypropylcellulose) (HPC)
[16] = dose: 200.0 mg/kg/injection, schedule: Q01DX009 (ip), vehicle: Klucel (hydroxypropylcellulose) (HPC)
[17] = dose: 400.0 mg/kg/injection, schedule: Q01DX009 (ip), vehicle: Klucel (hydroxypropylcellulose) (HPC)
[18] = dose: 100.0 mg/kg/injection, schedule: Q01DX001 (ip), vehicle: saline with Tween-80
[19] = dose: 200.0 mg/kg/injection, schedule: Q01DX001 (ip), vehicle: saline with Tween-80
[20] = dose: 400.0 mg/kg/injection, schedule: Q01DX001 (ip), vehicle: saline with Tween-80
[21] = dose: 25.0 mg/kg/injection, schedule: Q01DX009 (ip), vehicle: saline with Tween-80
[22] = dose: 50.0 mg/kg/injection, schedule: Q01DX009 (ip), vehicle: saline with Tween-80
[23] = dose: 200.0 mg/kg/injection, schedule: Q01DX009 (ip), vehicle: saline with Tween-80
[24] = dose: 200.0 mg/kg/injection, schedule: Q04DX003 (ip), vehicle: saline
[25] = dose: 400.0 mg/kg/injection, schedule: Q04DX003 (ip), vehicle: saline

Measured: T/C

Cc1c(C)c2ccccc2[nH]c1=O
inactive: [1] 99 % of control | [2] 96 % of control | [3] 100 % of control

CNC(=S)NCc1ccc(C(=O)NC(C)C)cc1
inactive: dose: 50.0 mg/kg/injection, schedule: Q01DX009 (ip), vehicle: other 97 % of control | dose: 100.0 mg/kg/injection, schedule: Q01DX009 (ip), vehicle: other 95 % of control | dose: 200.0 mg/kg/injection, schedule: Q01DX009 (ip), vehicle: other 100 % of control | dose: 400.0 mg/kg/injection, schedule: Q01DX009 (ip), vehicle: other 91 % of control

C=CCOCCC#N
inactive: [4] 95 % of control

C[N+]1(C)CCC(OC(=O)C(O)(c2ccccc2)C2CCCC2)C1 (stereo not given)
inactive: dose: 3.13 mg/kg/injection, schedule: Q04DX003 (ip), vehicle: saline 87 % of control | dose: 6.25 mg/kg/injection, schedule: Q04DX003 (ip), vehicle: saline 98 % of control | [5] 100 % of control | dose: 12.5 mg/kg/injection, schedule: Q04DX003 (ip), vehicle: saline 90 % of control | dose: 25.0 mg/kg/injection, schedule: Q01DX001 (ip), vehicle: saline 104 % of control | [6] 94 % of control | dose: 25.0 mg/kg/injection, schedule: Q04DX003 (ip), vehicle: saline 103 % of control | dose: 50.0 mg/kg/injection, schedule: Q01DX001 (ip), vehicle: saline 106 % of control | [7] 103 % of control | dose: 50.0 mg/kg/injection, schedule: Q04DX003 (ip), vehicle: saline 95 % of control | [8] 102 % of control and 105 % of control | [9] 97 % of control | [1] 108 % of control | [10] 113 % of control and 88 % of control | [11] 112 % of control | [12] 104 % of control

CC(=O)N(C(C)=O)c1ccc2[nH]c3c(N(C(C)=O)C(C)=O)cccc3c2c1
inactive: dose: 100.0 mg/kg/injection, schedule: Q04DX003 (ip), vehicle: Klucel (hydroxypropylcellulose) (HPC) 97 % of control | dose: 200.0 mg/kg/injection, schedule: Q04DX003 (ip), vehicle: Klucel (hydroxypropylcellulose) (HPC) 96 % of control | dose: 400.0 mg/kg/injection, schedule: Q04DX003 (ip), vehicle: Klucel (hydroxypropylcellulose) (HPC) 97 % of control

CSc1nc(C)cc(N)n1
inactive: [1] 107 % of control | [2] 102 % of control

CC1(C)CC(C)(Br)C(Br)C(=O)C1C(O)(C(F)(F)F)C(F)(F)F (stereo not given)
inactive: [1] 100 % of control | [2] 97 % of control | [3] 100 % of control

S=[As]c1ccccc1 (stereo not given)
inactive: [8] 100 % of control | [13] 97 % of control | [14] 107 % of control

Nc1nc(N)c(N=Nc2ccc(SCC(=O)O)cc2)c(N)n1
inactive: [1] 102 % of control | [2] 104 % of control | [3] 95 % of control

COc1ccc2c(c1)CNC1c3cc(OC)c(O)cc3CC21 (stereo not given)
inactive: dose: 66.0 mg/kg/injection, schedule: Q04DX003 (ip), vehicle: saline with Tween-80 107 % of control

C[C@]12CCC(=O)C(O)=C1CC[C@@H]1[C@@H]2CC[C@]2(C)C(=O)CC[C@@H]12
inactive: dose: 12.5 mg/kg/injection, schedule: Q01DX009 (ip), vehicle: Klucel (hydroxypropylcellulose) (HPC) 103 % of control | dose: 25.0 mg/kg/injection, schedule: Q01DX009 (ip), vehicle: Klucel (hydroxypropylcellulose) (HPC) 97 % of control | dose: 50.0 mg/kg/injection, schedule: Q01DX009 (ip), vehicle: Klucel (hydroxypropylcellulose) (HPC) 104 % of control | [15] 98 % of control | [16] 91 % of control | [17] 97 % of control

COc1ccc(CCNC(=O)Cc2cc(OC)c(OC)cc2[N+](=O)[O-])cc1OC
inactive: [8] 94 % of control | [13] 97 % of control | [14] 94 % of control

Nc1ccc2c(c1)-c1ccccc1C2O (stereo not given)
inactive: [1] 92 % of control | [2] 101 % of control | [3] 99 % of control

CCC1(C)CCC2(C)C(CCC3C(C)(CO)CCCC32O)C1 (stereo not given)
inactive: [18] 98 % of control | [19] 94 % of control | [20] 98 % of control

CCCCCCCCCCCCCCOc1ccc(C(=O)O)cc1
inactive: [15] 93 % of control | [1] 91 % of control | [16] 93 % of control | [2] 90 % of control | [17] 93 % of control | [3] 88 % of control

CCN(CC)c1nc(N(CC)CC)nc(N(CC)CC)n1
inactive: [21] 93 % of control | [22] 93 % of control | [4] 95 % of control | [23] 93 % of control

[Br][Pt].[NH-]CC[N-]CC[NH-]
inactive: dose: 12.5 mg/kg/injection, schedule: Q01DX009 (ip), vehicle: water 98 % of control | dose: 25.0 mg/kg/injection, schedule: Q01DX009 (ip), vehicle: water 93 % of control

ClCC1C(CCl)C2(Cl)C(Cl)=C(Cl)C1(Cl)C2(Cl)Cl (stereo not given)
inactive: [4] 100 % of control | [1] 93 % of control | [23] 98 % of control | [2] 95 % of control | dose: 400.0 mg/kg/injection, schedule: Q01DX009 (ip), vehicle: saline with Tween-80 93 % of control | [3] 93 % of control

CCN(CC)CCCNc1ncnc(Cl)c1C(=C(C)C)c1ccccc1
inactive: [8] 97 % of control | [13] 105 % of control

CC#CC(=O)SCCNC(=O)CC
inactive: dose: 12.5 mg/kg/injection, schedule: Q01DX009 (ip), vehicle: saline with Tween-80 101 % of control | [21] 101 % of control | [6] 112 % of control | [22] 101 % of control | [7] 106 % of control | [1] 86 % of control

COC12CC3C4CCC5CC(O)CCC5(C)C4CCC3(C)C1C(C)C1(CCC(C)CO1)O2 (stereo not given)
inactive: [1] 100 % of control | [2] 96 % of control | [3] 92 % of control

COc1cc(C)ccc1C1=CCCCC1
inactive: [10] 95 % of control | [24] 95 % of control | [25] 87 % of control

CN(N=C(C1CC1)C1CC1)c1ccccc1
inactive: [18] 100 % of control | [19] 107 % of control | [20] 105 % of control

OCC1(CO)CCCC(CO)(CO)C1O
inactive: [9] 94 % of control | [11] 94 % of control | [12] 94 % of control

Nc1ncnc2c1c1c(SCc3ccc([N+](=O)[O-])cc3)ncnc1n2C1OC(CO)C(O)C1O (stereo not given)
inactive: dose: 6.25 mg/kg/injection, schedule: Q01DX005 (ip), vehicle: other 104 % of control | dose: 12.5 mg/kg/injection, schedule: Q01DX005 (ip), vehicle: other 104 % of control | dose: 25.0 mg/kg/injection, schedule: Q01DX005 (ip), vehicle: other 104 % of control | dose: 50.0 mg/kg/injection, schedule: Q01DX005 (ip), vehicle: other 113 % of control | dose: 100.0 mg/kg/injection, schedule: Q01DX005 (ip), vehicle: other 103 % of control | dose: 200.0 mg/kg/injection, schedule: Q01DX005 (ip), vehicle: other 98 % of control

CCCCCC(=O)N1CCCCCC1
inactive: [10] 96 % of control | [24] 98 % of control | [25] 98 % of control

[Cl][Pt+2][Cl].[NH-]N1CCN([NH-])CC1
inactive: [5] 105 % of control | [6] 90 % of control | [7] 98 % of control | [1] 94 % of control | [2] 102 % of control

CCCCCCCCCCCCCCCCOc1ccc(OCCCCCCCCC)cc1
inactive: [20] 86 % of control

COC1OC2COCOC2C(OS(=O)(=O)c2ccc(C)cc2)C1OS(=O)(=O)c1ccc(C)cc1 (stereo not given)
inactive: [22] 103 % of control | [4] 97 % of control | [23] 97 % of control
